Values joined by “and” are separate entries in the source; they are usually repeats but may differ in a detail not shown here. Equal entries are not always repeated. Where two headings read alike, the source gives them in different places.

Consider seven molecules from paper PMC6401477, “Quorum Sensing Signal Selectivity and the Potential for Interspecies Cross Talk” (mBio, 2019).

Assay [1] deals with T1, BtaR1 (Burkholderia thailandensis, UniProt Q2T543).
T1 sequence (Q2T543 1-239): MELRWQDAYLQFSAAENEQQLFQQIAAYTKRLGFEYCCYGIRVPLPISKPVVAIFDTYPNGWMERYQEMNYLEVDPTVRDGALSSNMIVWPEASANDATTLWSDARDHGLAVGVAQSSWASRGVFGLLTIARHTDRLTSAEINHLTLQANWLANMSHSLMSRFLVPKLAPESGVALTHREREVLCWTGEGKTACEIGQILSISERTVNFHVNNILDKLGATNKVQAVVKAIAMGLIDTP
The experiment in a line: cell-based. Further details: species or system B. thailandensis.

Assay [2] concerns the target T2, BtaR2 (Burkholderia thailandensis, UniProt Q2T5X2).
T2 sequence (Q2T5X2 1-234): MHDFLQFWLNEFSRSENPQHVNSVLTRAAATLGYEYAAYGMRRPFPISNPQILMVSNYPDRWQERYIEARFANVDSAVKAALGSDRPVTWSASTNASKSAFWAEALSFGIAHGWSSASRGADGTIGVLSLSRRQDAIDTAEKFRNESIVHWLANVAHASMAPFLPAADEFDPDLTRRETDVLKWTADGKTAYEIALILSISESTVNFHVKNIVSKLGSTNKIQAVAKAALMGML
The experiment in a line: cell-based. On the set-up: species or system B. thailandensis.

For a further assay, the target named is T3, LuxR (Aliivibrio fischeri, UniProt P12746).
T3 construct: endogenous in cells; host or cells: V. fischeri MJ215
T3 sequence (P12746 1-250): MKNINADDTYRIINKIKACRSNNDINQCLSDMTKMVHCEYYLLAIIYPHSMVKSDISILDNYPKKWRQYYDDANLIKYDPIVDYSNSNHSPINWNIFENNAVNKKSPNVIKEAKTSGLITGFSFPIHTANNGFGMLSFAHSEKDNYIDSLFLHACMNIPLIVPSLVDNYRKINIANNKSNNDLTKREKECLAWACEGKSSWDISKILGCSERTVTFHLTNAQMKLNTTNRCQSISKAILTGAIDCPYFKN
The experiment in a line: cell-based. The settings on record: V. fischeri MJ215, luminescence; read-out: EC50 LuxR in native host.

In another assay the target is T4, CviR (Chromobacterium violaceum, UniProt D3W065).
T4 construct: Violacein was used as a measure of CviR activity in C. violaceum (CV026); endogenous in cells; host or cells: C. violaceum CV026
Nature of the assay: cell-based. The settings on record: C. violaceum CV026, violacein; read-out: EC50 CviR in native host.

Assay [3] deals with T5, QscR (Pseudomonas aeruginosa, UniProt G3XD77).
T5 construct: expressed in transfected cells; host or cells: E. coli 5α (DH5α) with pJNQ and pPROBE-PPA1897
T5 sequence (G3XD77 1-237): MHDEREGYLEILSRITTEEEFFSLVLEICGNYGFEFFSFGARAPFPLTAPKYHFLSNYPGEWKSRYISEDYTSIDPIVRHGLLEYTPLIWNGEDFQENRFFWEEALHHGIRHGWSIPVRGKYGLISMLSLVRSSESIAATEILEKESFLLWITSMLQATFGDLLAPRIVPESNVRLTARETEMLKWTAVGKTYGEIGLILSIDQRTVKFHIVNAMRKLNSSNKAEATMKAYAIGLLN
Nature of the assay: cell-based. The settings on record: P. aeruginosa PAO-SC4 (pPROBE-PPA1897); read-out: EC50 QscR in native host.

In assay [4] the target is T1, BtaR1. Nature of the assay: cell-based. Further details: species or system B. thailandensis. The source holds these as a separate data set.
For assay [5], the target named is T6, LasR (Pseudomonas aeruginosa, UniProt P25084).
T6 construct: expressed in transfected cells; host or cells: E. coli 5α (DH5α) with pJNL and pPROBE-PrsaL
T6 sequence (P25084 1-239): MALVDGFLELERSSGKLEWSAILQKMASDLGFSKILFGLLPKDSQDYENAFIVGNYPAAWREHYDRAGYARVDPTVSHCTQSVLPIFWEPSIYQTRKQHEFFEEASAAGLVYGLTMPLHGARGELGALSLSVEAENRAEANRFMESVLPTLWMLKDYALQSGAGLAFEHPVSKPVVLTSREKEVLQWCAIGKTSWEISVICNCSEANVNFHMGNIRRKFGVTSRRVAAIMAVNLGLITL
Nature of the assay: cell-based. The settings on record: P. aeruginosa PAO-SC4 (pPROBE-PrsaL); mean ± SEM, n ≥ 3; read-out: EC50 LasR in native host.

The target of assay [6] is T6, LasR. The experiment in a line: cell-based. On the set-up: species or system P. aeruginosa. The settings on record: receptor expressed in E. coli (DH5α), arabinose-induced.
Assay [7] addresses T7, RhlR (Pseudomonas aeruginosa, UniProt P54292).
T7 sequence (P54292 1-241): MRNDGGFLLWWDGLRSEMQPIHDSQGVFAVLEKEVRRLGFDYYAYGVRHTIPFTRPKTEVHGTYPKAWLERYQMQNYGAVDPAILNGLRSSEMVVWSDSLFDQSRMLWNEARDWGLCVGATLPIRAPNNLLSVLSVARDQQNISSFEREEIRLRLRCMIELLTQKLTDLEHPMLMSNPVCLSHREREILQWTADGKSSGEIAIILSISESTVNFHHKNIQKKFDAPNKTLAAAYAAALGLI
The experiment in a line: cell-based. Type of assay: cell-based, P. aeruginosa. The settings on record: receptor expressed in E. coli (DH5α), arabinose-induced.

The target in assay [8] is T5, QscR. The experiment in a line: cell-based. Further details: species or system P. aeruginosa. The settings on record: receptor expressed in E. coli (DH5α), arabinose-induced.
In assay [9] the target is T7, RhlR. Nature of the assay: cell-based. Further details: species or system P. aeruginosa. The settings on record: rhlR overexpressed via pJNR in PAO-SC4; mean ± SEM, n ≥ 3; read-out: EC50 overexpression (RhlR).
In assay [10] the target is T7, RhlR. Format: cell-based. The settings on record: at 1 mM; native P. aeruginosa reporter.
The target in assay [11] is T2, BtaR2. The experiment in a line: cell-based. On the set-up: species or system B. thailandensis. This is another data set of the same source.

What is called EC50 is the concentration needed to bring the measured effect to its halfway point. Regarding `CCCC(=O)CC(=O)N[C@H]1CCOC1=O` [3OC6-HSL], the 50% effective concentration (EC50) is > 100 µM on BtaR1 [1]; > 100 µM on BtaR2 [2]; 0.272 µM and 0.27 µM on LuxR; 0.98 ± 0.26 µM at CviR; > 100 µM at QscR [3]; > 100 µM on BtaR1 [4].
Regarding `CC(O)CC(=O)N[C@H]1CCOC1=O` (stereo partly drawn) [3OHC4-HSL], the 50% effective concentration (EC50) at LasR [5] was > 100 µM; on LasR [6] it was > 100 µM; on BtaR1 [1] it was > 100 µM; on BtaR2 [2] it was 25 ± 2.6 µM; at RhlR [7], > 100 µM; on LuxR, > 100 µM. In addition, the EC50 on CviR, on QscR [3] and on QscR [8] was > 100 µM throughout.
As for `CCCCCCCCCC(O)CC(=O)N[C@H]1CCOC1=O` (stereo partly drawn) [3OHC12-HSL], the EC50 at LasR [5] is 48.4 ± 13.2 µM; on LasR [6], 1.23 ± 0.86 µM; on BtaR2 [2], 0.0915 ± 0.0252 µM; at RhlR [7] it was > 100 µM; at LuxR, > 100 µM; on CviR it was > 100 µM. In addition, the EC50 on QscR [3] came out at 23.9 ± 9.2 µM; at QscR [8], 0.11 ± 0.05 µM.
For the molecule `CCCC(=O)N[C@H]1CCOC1=O` [C4-HSL, N-butyryl-L-homoserine lactone], the EC50 was > 100 µM at LasR [5]; > 100 µM at LasR [6]; > 100 µM at BtaR1 [1]; 12 ± 3.1 µM at RhlR [9]; > 100 µM at BtaR2 [2]; 122 ± 17 µM at RhlR [7]. In addition, the EC50 at LuxR is > 100 µM; on BtaR2 [11], > 100 µM; on CviR it was 14.3 ± 3.8 µM; at QscR [3] it was > 100 µM; at QscR [8] it was > 100 µM. On RhlR [10], the “saturation of RhlR activity” value is given as “not saturated”.
As for `CCCCCC(=O)N[C@H]1CCOC1=O` [C6-HSL], the EC50 on LasR [5] was > 100 µM; on LasR [6] it was > 100 µM; on BtaR2 [2], > 100 µM; at RhlR [7] it was 134 ± 26 µM; at CviR it was 0.0834 ± 0.0245 µM; at QscR [3] it was > 100 µM.
For `CCCCCCCC(=O)N[C@H]1CCOC1=O` [C8-HSL], the 50% effective concentration (EC50) was > 100 µM at LasR [5]; 13.9 ± 2.1 µM on BtaR2 [11]; 1.66 ± 0.92 µM at CviR; > 100 µM on QscR [3]; 1.9 ± 0.27 µM on QscR [8].
On to `CCCCCCCCCCCCCCCC(=O)N[C@H]1CCOC1=O` [C16-HSL], for which the EC50 at LasR [5], at BtaR2 [2], at RhlR [7], on LuxR, on BtaR2 [11] and at CviR was > 100 µM in each case. Moreover, the EC50 at QscR [3] and on QscR [8] was > 100 µM throughout.
